Some test systems named below: M14 melanoma; U251 CNS; A498 renal; BT-549 breast; HS 578T breast; MDA-N; SK-MEL-5 melanoma; SNB-19 CNS; EKVX NSCLC; CCRF-CEM leukemia; ACHN renal; RPMI-8226 leukemia; MDA-MB-231 breast; NCI-H226 lung; OVCAR-5 ovarian; SF-539 CNS; DU-145 prostate; UACC-257 melanoma; MDA-MB-435; SK-MEL-2 melanoma.
What all share (test): NCI tumour cell line growth inhibition, 48 h

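The compound was tested at five concentrations on cells cultured in 96-well plates, with a 48-hour exposure period. At the TGI there is no net growth.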

As for `CC(=O)Oc1ccc2cc(Oc3ccc(Cl)c(Cl)c3)c(=O)oc2c1`, the TGI with M14 melanoma is greater than 100 µM; in the experiment with U251 CNS, 41.5 µM; with A498 renal it was 65.8 µM; in the experiment on BT-549 breast, 34.4 µM; in the experiment on HS 578T breast, greater than 100 µM; with MDA-N, 56.6 µM. Also, the TGI in the experiment on SK-MEL-5 melanoma is 35.5 µM; with SNB-19 CNS, greater than 100 µM; with EKVX NSCLC, 80.8 µM; in the experiment on CCRF-CEM leukemia, greater than 100 µM; in the experiment with ACHN renal it was 72.6 µM; in the experiment on RPMI-8226 leukemia it was greater than 100 µM. Besides, the TGI with MDA-MB-231 breast is greater than 100 µM; with NCI-H226 lung it was 82.9 µM; in the experiment with OVCAR-5 ovarian, greater than 100 µM; with SF-539 CNS, 46.8 µM; with DU-145 prostate it was greater than 100 µM; in the experiment with UACC-257 melanoma, 85.1 µM.
Take `COc1ccc(-c2cc(-c3ccc(O)cc3O)c(C#N)c(=O)[nH]2)cc1`: the TGI was 35.4 µM in the experiment with M14 melanoma; 41 µM in the experiment with U251 CNS; 55.9 µM in the experiment with BT-549 breast; 48.1 µM with HS 578T breast; 32.7 µM with MDA-N; 34.6 µM in the experiment on SK-MEL-5 melanoma. For the same molecule, the TGI is 53.3 µM in the experiment on SNB-19 CNS; 41.6 µM with EKVX NSCLC; 56.7 µM in the experiment with CCRF-CEM leukemia; 36.4 µM in the experiment with MDA-MB-435; greater than 100 µM in the experiment on ACHN renal; 43.5 µM with RPMI-8226 leukemia. For the same molecule, the TGI in the experiment with MDA-MB-231 breast was 36.8 µM; in the experiment on NCI-H226 lung, 55.3 µM; in the experiment with OVCAR-5 ovarian, 43.3 µM; in the experiment on SF-539 CNS, 34.7 µM; in the experiment on DU-145 prostate, greater than 100 µM; in the experiment with UACC-257 melanoma, 70.8 µM.
Take `COc1cc2oc(-c3ccc4c(c3)OCO4)c(OC)c(=O)c2c(OC)c1O`: the TGI in the experiment on M14 melanoma, in the experiment with U251 CNS, with A498 renal, in the experiment with BT-549 breast, in the experiment with HS 578T breast and in the experiment with MDA-N was greater than 100 µM each time. Further, the TGI in the experiment on SK-MEL-5 melanoma, with SNB-19 CNS, in the experiment with EKVX NSCLC, in the experiment with CCRF-CEM leukemia, in the experiment on MDA-MB-435 and in the experiment on ACHN renal was greater than 100 µM each time. The TGI in the experiment with MDA-MB-231 breast, with NCI-H226 lung, in the experiment on OVCAR-5 ovarian, in the experiment on SF-539 CNS, in the experiment with DU-145 prostate and with UACC-257 melanoma was greater than 100 µM each time.
For the molecule `COc1ccc(OC)c(C2CCc3c(cnc4nc(N)nc(N)c34)C2)c1` (configuration not stated), the TGI in the experiment with M14 melanoma amounted to 17.3 µM; with U251 CNS, 18.7 µM; with A498 renal it was 27.4 µM; in the experiment with BT-549 breast, 40.7 µM; with HS 578T breast, 53 µM; with MDA-N it was 17.2 µM. Moreover, the TGI with SK-MEL-5 melanoma was determined as 33.4 µM; in the experiment with SNB-19 CNS, 21.5 µM; in the experiment on EKVX NSCLC, 24.2 µM; in the experiment with MDA-MB-435, 17.1 µM; with ACHN renal, 17.2 µM; in the experiment on MDA-MB-231 breast it was 29.2 µM. Besides, the TGI in the experiment with NCI-H226 lung worked out at 54.8 µM; in the experiment with SK-MEL-2 melanoma, 31.8 µM; in the experiment on OVCAR-5 ovarian, 22.2 µM; with SF-539 CNS, 89.1 µM; in the experiment with DU-145 prostate, 28.4 µM; with UACC-257 melanoma, 23.4 µM.
Regarding `CCCN(CCC)C(=S)N/N=C/c1ccccn1`, the TGI in the experiment with M14 melanoma is 0.281 µM; with U251 CNS it was greater than 25.4 µM; in the experiment with A498 renal it was 4.03 µM; in the experiment on BT-549 breast it was 22.5 µM; with HS 578T breast, greater than 100 µM; with MDA-N, 14.8 µM. Also, the TGI came to 0.954 µM in the experiment with SK-MEL-5 melanoma; 32.1 µM in the experiment with SNB-19 CNS; 11.3 µM in the experiment on EKVX NSCLC; 0.255 µM in the experiment with CCRF-CEM leukemia; 18.8 µM in the experiment with MDA-MB-435; 0.384 µM in the experiment on ACHN renal. For the same molecule, the TGI is 0.566 µM in the experiment on RPMI-8226 leukemia; 1.14 µM with NCI-H226 lung; 14.9 µM in the experiment on SK-MEL-2 melanoma; 21.4 µM in the experiment with OVCAR-5 ovarian; 0.734 µM with SF-539 CNS; greater than 43.8 µM in the experiment with DU-145 prostate. This molecule gave a TGI with UACC-257 melanoma of 0.195 µM.
As to `COc1cc(/C=N\c2nc(-c3ccc(NS(=O)(=O)c4ccc(Cl)c(OC)c4)cc3)cs2)ccc1O`, the TGI was greater than 100 µM with M14 melanoma; 83 µM with BT-549 breast; greater than 100 µM in the experiment with HS 578T breast; greater than 100 µM in the experiment with MDA-N; greater than 100 µM with SK-MEL-5 melanoma; greater than 100 µM in the experiment on SNB-19 CNS. In addition, the TGI in the experiment on EKVX NSCLC was greater than 100 µM; in the experiment on CCRF-CEM leukemia it was greater than 100 µM; in the experiment on MDA-MB-435 it was greater than 100 µM; in the experiment on ACHN renal, greater than 100 µM; with RPMI-8226 leukemia it was 74.2 µM; in the experiment on NCI-H226 lung it was greater than 100 µM. The TGI with SK-MEL-2 melanoma, in the experiment with OVCAR-5 ovarian, with SF-539 CNS and in the experiment on DU-145 prostate was greater than 100 µM in each case.
As for `COc1ccc(-c2c3c(n(C4OC(COC(C)=O)C(OC(C)=O)C(OC(C)=O)C4OC(C)=O)c(=S)c2C#N)CCC3)cc1` (configuration not stated), the TGI in the experiment on M14 melanoma, with U251 CNS, with BT-549 breast, in the experiment on HS 578T breast, with MDA-N and with SK-MEL-5 melanoma was greater than 100 µM throughout. Further, the TGI in the experiment on SNB-19 CNS, in the experiment with CCRF-CEM leukemia, in the experiment with MDA-MB-435, in the experiment on ACHN renal, in the experiment with RPMI-8226 leukemia and in the experiment with SK-MEL-2 melanoma was greater than 100 µM in each case. Moreover, the TGI in the experiment on OVCAR-5 ovarian, in the experiment on SF-539 CNS, in the experiment on DU-145 prostate and in the experiment with UACC-257 melanoma was greater than 100 µM each time.
As for `CC(=O)OCC1OC(n2c3c(cc(C#N)c2=S)CCC3)C(OC(C)=O)C(OC(C)=O)C1OC(C)=O` (configuration not stated), the TGI with M14 melanoma, in the experiment with U251 CNS, in the experiment on A498 renal, in the experiment on BT-549 breast, in the experiment on HS 578T breast and in the experiment with MDA-N was greater than 100 µM each time. The TGI in the experiment on SK-MEL-5 melanoma, with SNB-19 CNS, in the experiment with CCRF-CEM leukemia, in the experiment on MDA-MB-435, in the experiment with ACHN renal and in the experiment with RPMI-8226 leukemia was greater than 100 µM throughout. In addition, the TGI with MDA-MB-231 breast, in the experiment on NCI-H226 lung, in the experiment on SK-MEL-2 melanoma, in the experiment with OVCAR-5 ovarian, in the experiment on SF-539 CNS and in the experiment on DU-145 prostate was greater than 100 µM each time. In the experiment on UACC-257 melanoma, this molecule had a TGI greater than 100 µM.

(Values after PubChem BioAssay (NCI).)
